Data on eight compounds can be found in patent publication US10696687B2, “Pyrazolo fused heterocyclic compounds as ERK inhibitors” (CHANGZHOU JIEKAI PHARMATECH CO., LTD., priority 2015, dated 2020).

This assay has as its system Colon cancer cells (Colo205 cell line). In words: Colo205 cell proliferation assay (MTT assay, WST-8 readout). The assay is classed as cell-based. The note with it: Homo sapiens, COLO 205, 72 hours incubation, absorbance at 450 nm, read-out: Colo 205 cell growth inhibition IC50. The procedure:
Compounds disclosed herein were tested for the inhibition of ERK2 by a Colo205 cell proliferation assay commonly known as MTT assay. In this assay, a complete media was prepared by adding 10% fetal bovine serum to RPMI-1640 medium (Life technology). Colon cancer cells (Colo205 cell line) were added to each of 88 wells of a 96 well plate at a seeding density of 5,000 cells/well/90 μL. The cells were allowed to attach to the plate by incubating at 37° C. for 24 hours. The compound was dissolved in DMSO (SIGMA). A solution of test compound was prepared in complete media by serial dilution to obtain the following concentrations: 500 μM, 150 μM, 50 μM, 15 μM, 5 μM, 1.5 μM, 0.5 μM, 0.15 μM and 0.05 μM. The test compound solution (10 μL) was added to each of 80 cell-containing wells. The final concentrations of the compound were following: 50 μM, 15 μM, 5 μM, 1.5 μM, 0.5 μM, 0.15 μM, 0.05 μM, 0.015 μM and 0.005 μM. The final concentration of DMSO is 0.5%. To the 8 remaining cell-containing wells, only complete media (containing 0.5% DMSO) was added to form a control group in order to measure maximal proliferation. To the remaining 8 empty wells, complete media was added to for a vehicle control group in order to measure background. The plates were incubated at 37° C. for 72 hours. 10 μL WST-8 solution (DOJINDO, Cell Counting KIT-8) was added to each well. The plates were further incubated at 37° C. for 2 hours, and then read for the absorbance using a microplate reader at 450 nm.
A general note: Formazan colour is commonly taken as a measure of viable cells.

Consider `Cc1cc(-c2n[nH]c3ncc(C(=O)N[C@H]4CCC[C@@H]4c4ccccc4)cc23)ccn1` [Compound 32], for which the 50% inhibitory concentration (IC50) was 0.052 to 10 µM. In the case of `Cc1cc(-c2n[nH]c3ncc(C(=O)N[C@@H]4CN(C)C[C@H]4c4ccccc4Cl)cc23)ccn1` [Compound 33, N-((3S,4R)-4-(2-chlorophenyl)-1-methylpyrrolidin-3-yl)-3-(2-methylpyridin-4-yl)-1H-pyrazolo[3,4-b]pyridine-5-carboxamide] it was 0.052 to 10 µM; in that of `Cc1cc(-c2n[nH]c3ncc(C(=O)N[C@H]4CN(C)C[C@@H]4c4ccccc4Cl)cc23)ccn1` [Compound 34, N-((3R,4S)-4-(2-chlorophenyl)-1-methylpyrrolidin-3-yl)-3-(2-methylpyridin-4-yl)-1H-pyrazolo[3,4-b]pyridine-5-carboxamide], 0.052 to 10 µM.

As to `Cc1cc(-c2n[nH]c3ncc(C(=O)N[C@@H]4COC[C@H]4c4ccccc4)cc23)ccn1` [Compound 35, trans-3-(2-methylpyridin-4-yl)-N-(4-phenyltetrahydrofuran-3-yl)-1H-pyrazolo[3,4-b]pyridine-5-carboxamide], the IC50 lay within 0.052 to 10 µM. For `Cc1cc(-c2n[nH]c3ccc(C(=O)N[C@@H]4CN(C)C[C@H]4c4ccccc4Cl)cc23)ccn1` [Compound 37, N-((3S,4R)-4-(2-chlorophenyl)-1-methylpyrrolidin-3-yl)-3-(2-methylpyridin-4-yl)-1H-indazole-5-carboxamide] the value was 0.052 to 10 µM; for `Cc1cc(-c2n[nH]c3ccc(C(=O)N[C@@H]4CN(C)C[C@H]4c4ccccc4C(F)(F)F)cc23)ccn1` [Compound 39, N-((3S,4R)-1-methyl-4-(2-(trifluoromethyl)phenyl)pyrrolidin-3-yl)-3-(2-methylpyridin-4-yl)-1H-indazole-5-carboxamide], 0.052 to 10 µM.

As for `Cc1cc(-c2n[nH]c3ccc(C(=O)N[C@H]4CN(C)C[C@@H]4c4ccccc4C(F)(F)F)cc23)ccn1` [Compound 41, N-((3R,4S)-1-methyl-4-(2-(trifluoromethyl)phenyl)pyrrolidin-3-yl)-3-(2-methylpyridin-4-yl)-1H-indazole-5-carboxamide], the 50% inhibitory concentration (IC50) fell in the range of 0.052 to 10 µM. For `Cc1cc(-c2n[nH]c3sc(C(=O)NC(c4ccc(F)cc4)C(C)(C)O)cc23)ccn1` (centres unmarked) [Compound 55, N-(1-(4-fluorophenyl)-2-hydroxy-2-methylpropyl)-3-(2-methylpyridin-4-yl)-1H-thieno[2,3-c]pyrazole-5-carboxamide] the value was 0.052 to 10 µM.

Usually IC50 stands for the midpoint of a concentration-inhibition curve.
